US20260083691A1, “TREATING CANCERS WITH COMBINATIONS OF ANTI-CD20 ANTIBODY AND ACYLFULVENES” (Lantern Pharma Inc., priority 2023, published 2026)

Tests used:
[1] = system: OCLLY1-derived tumor xenografts; assay: LP-284 alone and with rituximab in OCLLY1 DLBCL/HGBL-MYC/BCL2 tumor xenografts in mice; type: in vivo; conditions: for tumor growth inhibition (TGI): day 24, NOD.SCID mice
Procedure: HRD genomic scars from 107 B-NHL patients in the Pan-Cancer Analysis of Whole Genomes (PCAWG) study were tested. At least 10% of B-NHL patients were likely HRD+, with approximately 90% of these cases being diffuse large B-cell lymphoma (DLBCL). […] The calculated bliss synergy score between LP-284 and Rituximab on day 24 is 10, indicating synergy.
LP-284's efficacy in DLBCL/HGBL-MYC/BCL2 xenograft models was evaluated. LP-284, vehicle (saline), and Rituximab were administered intravenously in OCLLY1-derived tumor xenografts in mice. All vehicle-treated mice were sacrificed by day 24 due to excessive tumor size.
LP-284 was tested for anti-tumor efficacy as a monotherapy and in combination with rituximab in OCI-LY 1 DLBCL/HGBL-MYC/BCL2 cell line-derived tumor xenografts in mice. Methods: OCLLY1 cells were implanted subcutaneously in NOD.SCID mice. The following treatments were initiated when the tumors reached a volume of >100 mm3: vehicle (saline, administered intravenously on days 1, 8, and 15 in a 28-day cycle), 2 mg/kg or 4 mg/kg LP-284 (administered intravenously on days 1, 8, and 15 in a 28-day cycle), 10 mg/kg rituximab (administered intravenously on days 1 and 15 in a 28-day cycle), 2 mg/kg LP-284 and 10 mg/kg rituximab in combination. Four mice were used in each treatment group. Tumor Growth Inhibition (TGI) was calculated as % TGI=(1−((Tt/T0)/(Ct/C0)))/(1−(C0/Ct))*100 where Tt=mean tumor volume of treated at time t, TO=mean tumor volume of treated at time 0, Ct=mean tumor volume of control at time t, CO=mean tumor volume of control at time 0.

B-cells (CD19+ or CD20+) = assay: B-cell reduction in immune-proficient mice, blood analyzed by flow cytometry; type: in vivo
Procedure: (§1) In this study, vehicle, LP-284 (4 mg/kg), and cyclophosphamide (25 mg/kg, a clinically relevant dose) were administered intravenously on days 1, 8, and 15, with three mice per treatment group. Blood samples were collected on Day 16 and analyzed by flow cytometry to quantify the B-cell populations.

[2] = Tolerability (body weight, gross necropsy) in immune-proficient mice; conditions: 4 mg/kg intravenously days 1, 8, 15
Procedure: as §1

Row | SMILES | tumor growth inhibition (TGI) ([1]; 2 mg/kg LP-284 alone intravenously days 1, 8, 15) [%] | tumor growth inhibition (TGI) ([1]; 4 mg/kg LP-284 intravenously days 1, 8, 15) [%] | tumor volume ([1]; by day 24, versus vehicle (saline), intravenous) | reduction of B-cells (CD19+ or CD20+) (B-cells (CD19+ or CD20+); iv, 4 mg/kg, 384 h) | body weight [2] | gross necropsy findings [2] | tolerability [2] | reduction of B-cells (CD19+ or CD20+) (B-cells (CD19+ or CD20+); cyclophosphamide 25 mg/kg intravenously days 1, 8, 15, blood collected Day 16, immune-proficient mice)
1 | CC1=C(CN(O)C(N)=O)C2=C(C)C3(CC3)[C@](C)(O)C(=O)C2=C1 [LP-284, (+)-hydroxyureamethyl acylfulvene] | 57 | 99 | significantly reduced tumor volume | approximately 30% | normal body weight | no abnormal findings | well-tolerated | 
2 | O=P1(N(CCCl)CCCl)NCCCO1 (centres unmarked) [cyclophosphamide, reference compound] |  |  |  |  |  |  |  | comparable to the reduction achieved by cyclophosphamide
